This passage reports LC retention time results from the RepoRT retention time repository.

The series is described as follows: Waters ACQUITY UPLC BEH C18, 100 × 2.1 mm, 1.7 µm, 40 °C, 0.3 to 0.4 mL/min, estimated dead time 0.63 min; A: water + 0.1% formic acid; B: methanol + 0.1% formic acid; gradient (min/%B) 0/0.5 0.1/0.5 10/80 10.1/99.5 12/99.5. The conditions noted are these: stereoisomer not certain.
In the case of `CC1OC(Oc2cc3c(O)cc(O)cc3[o+]c2-c2ccc(O)c(O)c2)C(O)C(O)C1O` (stereo unspecified), the LC retention time was 3.18 min.
Under `COc1cc(-c2oc3cc(O)cc(O)c3c(=O)c2OC2OC(CO)C(O)C(O)C2O)ccc1OC1OC(CO)C(O)C(O)C1O` (stereo unspecified) stands 3.23 min; under `CC1CCC2(NC1)OC1CC3C4CCC5CC(OC6OC(CO)C(OC7OC(CO)C(O)C(OC8OCC(O)C(O)C8O)C7OC7OC(CO)C(O)C(O)C7O)C(O)C6O)CCC5(C)C4CCC3(C)C1C2C` (stereo unspecified), 4.81 min.
For `O=C(C=Cc1ccc(O)cc1)NCCCCNCCCNC(=O)C=Cc1ccc(O)cc1`, the LC retention time is 3.83 min.
The result for `O=C(O)CCCCCCC(=O)O` reads 4.1 min.
For `O=C(O)c1cc(O)c2c(c1)C(C1c3cc(C(=O)O)cc(O)c3C(=O)c3c(OC4OC(CO)C(O)C(O)C4O)cccc31)c1cccc(OC3OC(CO)C(O)C(O)C3O)c1C2=O` (stereo unspecified), the LC retention time was 3.82 min.
For `CC1OC(OC2C(O)COC(OC3C(C)OC(OC4C(OC(=O)C56CCC(C)(C)CC5C5=CCC7C8(C)CCC(OC9OC(CO)C(O)C(O)C9O)C(C)(CO)C8CCC7(C)C5(C)CC6O)OCC(O)C4O)C(O)C3O)C2O)C(O)C(O)C1O` (stereo unspecified), the LC retention time was 5.79 min.
Under `COc1cc2c3c(c1OC)-c1cc4c(cc1CC3N(C)CC2)OCO4` (stereo unspecified) stands 4.89 min.
As to `CC1OC(OCC2OC(Oc3c(-c4ccccc4O)oc4cc(O)cc(O)c4c3=O)C(O)C(O)C2O)C(O)C(O)C1O` (stereo unspecified), the LC retention time was 4.1 min.
Turning to `C=CC1CN2CCC1CC2C(O)c1ccnc2ccc(OC)cc12` (stereo unspecified), the LC retention time is 3.31 min.
On to `COc1cc2c(cc1OC)-c1cc3ccc(OC)c(OC)c3c[n+]1CC2`, for which the LC retention time was 4.96 min.
Take `CC(C)=CCc1cc(C2CC(=O)c3c(O)cc(O)c(CC=C(C)C)c3O2)cc(O)c1O` (stereo unspecified): the LC retention time is 9.09 min.
For the molecule `CC(C)CC(N)C(=O)N1CCCC1C(=O)O` (stereo unspecified), the LC retention time was 2.72 min.
As to `CCC(C)C(NCC1(O)OC(CO)C(O)C1O)C(=O)O` (stereo unspecified), the LC retention time was 1.98 min.
For the molecule `COc1ccc(-c2cc(=O)c3c(O)cc(O)cc3o2)cc1O`, the LC retention time is 6.78 min.
Regarding `Oc1ccc(C=Cc2cc(O)cc3c2C(c2cc(O)cc(O)c2)C(c2ccc(O)cc2)O3)cc1` (stereo unspecified), the LC retention time was 5.81 min.
Under `Oc1cc(O)c2c(c1)OC(c1cc(O)c(O)c(O)c1)C(O)C2` (stereo unspecified) stands 2.49 min; under `O=C(CCc1ccc(O)c(O)c1)NCCCCNCCCNC(=O)CCc1ccc(O)c(O)c1`, 3.14 min; under `O=C(C=Cc1ccc(O)c(O)c1)OC1CC(O)(C(=O)O)CC(O)C1O` (stereo unspecified), 3.13 min.
Under `OCC1OC(OCC2OC(O)(CO)C(O)C2O)C(O)C(O)C1O` (stereo unspecified) stands 1.74 min; under `CC1(C)CC2C3=CCC4C5(C)CCC(OC6OC(C(=O)O)C(O)C(O)C6OC6OC(CO)C(O)C(O)C6OC6OC(CO)C(O)C(O)C6O)C(C)(CO)C5CCC4(C)C3(C)CCC2(C)C(O)C1O` (stereo unspecified), 5.81 min; under `CC1CCC2(NC1)OC1CC3C4CCC5CC(OC6OC(CO)C(OC7OC(CO)C(O)C(OC8OC(O)C(O)C(O)C8O)C7OCC(O)C(O)C(O)C(O)CO)C(O)C6O)CCC5(C)C4CCC3(C)C1C2C` (stereo unspecified), 4.32 min.
`OCC1OC(Oc2cc3c(OC4OC(CO)C(O)C(O)C4O)cc(O)cc3[o+]c2-c2ccc(O)cc2)C(O)C(O)C1O` (stereo unspecified): the LC retention time was 2.71 min.
Under `CC(CSCC(NC(=O)CCC(N)C(=O)O)C(=O)NCC(=O)O)C(=O)O` (stereo unspecified) stands 2.36 min; under `CS(=O)CCCCC(=NOS(=O)(=O)O)SC1OC(CO)C(O)C(O)C1O` (stereo unspecified), 1.74 min; under `O=C1CC(c2ccc(O)c(O)c2)Oc2cc(OC3OC(CO)C(O)C(O)C3O)cc(O)c21` (stereo unspecified), 4.09 min.
As for `O=C(C=Cc1ccc(O)cc1)OCC1OC(Oc2c(-c3ccc(O)cc3)oc3cc(O)cc(O)c3c2=O)C(O)C(O)C1O` (stereo unspecified), the LC retention time was 5.21 min.
Turning to `COc1ccc(C2CC(=O)c3c(O)cc(OC4OC(CO)C(O)C(O)C4OC4OC(C)C(O)C(O)C4O)cc3O2)cc1O` (stereo unspecified), the LC retention time is 4.59 min.
Take `CCCCCC=CCC=CCC=CCC=CCCCC(=O)O`: the LC retention time was 7.39 min.
Under `CCC(C)C(NC(=O)Cc1c[nH]c2ccccc12)C(=O)O` (stereo unspecified) stands 6.14 min.
Under `C=CC1C(OC2OC(CO)C(O)C(O)C2O)OC=C(C(=O)OC)C1CC1NCCc2c1[nH]c1ccccc21` (stereo unspecified) stands 4.36 min.
`COC(=O)C1=COC(C)C2CN3CCc4c([nH]c5ccccc45)C3CC12` (stereo unspecified): the LC retention time was 4.87 min.
The result for `CS(=O)CCCCCCCCC(N)C(=O)O` (stereo unspecified) reads 2.74 min; that for `CC(C)CC(NC(=O)C(N)CO)C(=O)O` (stereo unspecified), 2.38 min.
Turning to `COc1c(CO)c(OC2OC(COC3OCC(O)C(O)C3O)C(O)C(O)C2O)cc2c1C(=O)c1ccccc1C2=O` (stereo unspecified), the LC retention time was 5.23 min.
Under `CC1OC(OC2C(OC3C(OC4CCC5(C)C(CCC6(C)C5CC=C5C7CC(C)(C)CC(O)C7(C)CCC56C)C4(C)CO)OC(C(=O)O)C(O)C3O)OC(CO)C(O)C2O)C(O)C(O)C1O` (stereo unspecified) stands 7.09 min; under `CC1OC(OC2CCC3(C)C(CCC4(C)C3CC=C3C5CC(C)(C)CCC5(C(=O)O)CCC34C)C2(C)CO)C(O)C(OC2OC(CO)C(OC3OC(CO)C(O)C(O)C3O)C(O)C2O)C1O` (stereo unspecified), 6.92 min; under `O=C(C=Cc1ccc(O)cc1)OC1CC(O)(C(=O)O)CC(O)C1O` (stereo unspecified), 3.08 min.
Take `OCC1OC(OC2C(Oc3cc4c(O)cc(O)cc4[o+]c3-c3ccc(O)c(O)c3)OC(CO)C(O)C2O)C(O)C(O)C1O` (stereo unspecified): the LC retention time is 2.77 min.
Under `O=C(O)C1Cc2c([nH]c3ccccc23)CN1` (stereo unspecified) stands 3.35 min.
Under `CCCCC(=O)OC1C(CO)OC(OC2(CO)OC(CO)C(OC(C)=O)C2O)C(OC(=O)CCCC)C1OC(=O)CCCC` (stereo unspecified) stands 8.56 min; under `CS(=O)CCCCCCC#N` (stereo unspecified), 3.43 min; under `Cc1nccc2c1[nH]c1ccccc12`, 3.7 min.
Under `CC(C)C(O)(CC(=O)O)C(=O)O` (stereo unspecified) stands 3.25 min.
Regarding `CC1OC(OC2C(O)C(C)OC(OCC3OC(Oc4c(-c5ccc(O)cc5)oc5cc(O)cc(O)c5c4=O)C(O)C(O)C3O)C2O)C(O)C(O)C1O` (stereo unspecified), the LC retention time is 3.98 min.
Under `COc1cc(C=CC(=O)O)cc(OC)c1` stands 6.26 min; under `CC(=O)Oc1ccc(C=Cc2cc(OC(C)=O)cc(OC(C)=O)c2)cc1`, 8.46 min; under `COc1cc(CC(CO)C(CO)Cc2ccc(O)c(OC)c2)ccc1O` (stereo unspecified), 4.76 min.
Under `COc1ccc(CCNC(=O)C=Cc2ccc(O)c(OC)c2)cc1O` stands 5.29 min; under `CC1OC(OC2C(OC3C(OC4CCC5(C)C(CCC6(C)C5C=CC5=C7CC(C)(C)CC(O)C7(C)CCC56C)C4(C)CO)OC(C(=O)O)C(O)C3O)OC(C(=O)O)C(O)C2O)C(O)C(O)C1O` (stereo unspecified), 7.57 min.
Under `C=CC1C(OC2OC(CO)C(O)C(O)C2O)OC=C2C(=O)N3CCC(=O)c4ccccc4NC(=O)C3CC21` (stereo unspecified) stands 3.77 min; under `NC(=O)CN1CC2CC(C1)c1cccc(=O)n1C2` (stereo unspecified), 2.18 min.
`O=C(O)CC(=O)OCC1OC(Oc2cc(O)c3c(=O)c(-c4ccc(O)cc4)coc3c2)C(O)C(O)C1O` (stereo unspecified): the LC retention time was 4.89 min.
With `Nc1[nH]c(=O)[nH]c(=O)c1OC1OC(CO)C(O)C(O)C1OC1OC(CO)C(O)C1O` (stereo unspecified), the LC retention time is 2.16 min.
The result for `COc1cc(C2c3cc4c(cc3C(OC3OC5COC(C)OC5C(O)C3O)C3COC(=O)C23)OCO4)cc(OC)c1O` (stereo unspecified) reads 5.4 min.
As for `CC=CS(=O)CC(NC(=O)CCC(NCC1(O)OCC(O)C(O)C1O)C(=O)O)C(=O)O` (stereo unspecified), the LC retention time is 1.83 min.
The result for `C=CC1C(OC2OC(CO)C(O)C(O)C2O)OC=C2C(=O)N3Cc4c([nH]c5ccccc5c4=O)C3CC21` (stereo unspecified) reads 4.07 min.
For `COc1cc(-c2oc3cc(O)cc(O)c3c(=O)c2OC2OC(COC3OC(C)C(O)C(O)C3O)C(O)C(O)C2O)ccc1O` (stereo unspecified), the LC retention time was 4.17 min.
The result for `O=C(O)C=Cc1ccc(O)cc1` reads 2.71 min; that for `COc1ccc(-c2coc3cc(OC4OC(COC(=O)CC(=O)O)C(O)C(O)C4O)ccc3c2=O)cc1` (stereo unspecified), 5.43 min.
`COc1ccc(-c2coc3cc(OC4OC(COC(=O)CC5CCNCC5)C(O)C(O)C4O)ccc3c2=O)cc1` (stereo unspecified): the LC retention time was 4.67 min.
The result for `COc1ccc2cc1Oc1ccc(cc1)CC1=NCCc3cc(OC)c(cc31)Oc1c(OC)c(OC)c(OC)c3c1C(C2)N(C)CC3` (stereo unspecified) reads 4.25 min; that for `O=C(C=Cc1ccc(O)c(O)c1)OC(Cc1ccc(O)c(O)c1)C(=O)O` (stereo unspecified), 4.6 min; that for `CC(=O)c1cccc2oc(=O)[nH]c12`, 3.93 min.
Under `COc1ccc(-c2cc(=O)c3c(OC)cc(OC)c(-c4cc(-c5cc(=O)c6c(OC)cc(OC)cc6o5)ccc4OC)c3o2)cc1` stands 7.39 min; under `CCCCCCCCCCCCC(O)C(O)C(COC1OC(CC(C(=O)O)C(=O)O)C(O)C(O)C1O)NC(C)=O` (stereo unspecified), 4.79 min; under `O=c1c(O)c(-c2ccc(O)cc2)oc2ccccc12`, 8.56 min.
As to `COc1ccc(C2OCC3C(c4ccc(OC5OC(CO)C(O)C(O)C5O)c(OC)c4)OCC23)cc1OC` (stereo unspecified), the LC retention time was 5.13 min.
Under `O=C1OCC(Cc2cccc(O)c2)C1Cc1cccc(O)c1` (stereo unspecified) stands 6.18 min; under `CC1OC(OC2C(OC3C(OC4CCC5(C)C(CCC6(C)C5CC=C5C7CC(C)(C)CC(OC(=O)CC(=O)O)C7(C)CCC56C)C4(C)CO)OC(C(=O)O)C(O)C3O)OC(CO)C(O)C2O)C(O)C(O)C1O` (stereo unspecified), 6.73 min; under `COC1=CC2C3Cc4ccc(OC)c(O)c4C2(CCN3C)CC1=O` (stereo unspecified), 3.03 min.
